# Results reported in patent US11873320B2 (REATA PHARMACEUTICALS HOLDINGS, LLC, priority 2013, dated 2024).
# Experiments:
# [1] = system: bleomycin-induced pulmonary fibrosis
# [2] = metabolism in human liver microsomes
# LPS-induced sepsis = settings: mouse, in vivo
# [3] = system: TNFα-induced NF-κB activation; test: TNFα-induced NF-κB luciferase reporter, HeLa/NF-κB-Luc cells; assay type: cell-based; settings: Homo sapiens, 1 h pretreatment, TNFα 10 ng/mL 5 h
# Excerpt: (§1) NF-κB is a transcription factor that plays a central role in the regulation of many immune and inflammatory responses.
# NADPH levels = test: WST-1 absorbance as marker of NADPH in HCT-116 cells; assay type: cell-based; settings: 24 hours
# ovalbumin-induced asthma = ovalbumin-induced asthma in mice; assay type: in vivo, mouse
# Excerpt: Mice were sensitized with an IP injection of ovalbumin and aluminum hydroxide on Day 0 and Day 14 and challenged intranasally with ovalbumin in saline on Days 14, 25, 26, and 27. […] An increase in the number of T cells and B cells was also observed in the vehicle-treated mice.
# H6PD, PGD, TKT, ME1 mRNA = test: expression of genes involved in NADPH synthesis, HCT-116 cells; assay type: cell-based; settings: 24 hours
# [4] = topical administration pharmacokinetics in rats; assay type: in vivo, rat; settings: 0.01 to 3% in sesame oil
# Excerpt: The topical administration was formulated as a suspension in sesame oil.
# [5] = system: Nrf2 protein expression in SK-N-SH cells; test: in-cell western NQO1 assay, SK-N-SH cells; assay type: cell-based; settings: Homo sapiens, 72 h, 3 days incubation, read-out: EC50 for induction of Nrf2 protein expression in SK-N-SH cells
# Experimental: HMOX1 protein was not detected in untreated or RTA 408-treated SH-SY5Y cells. […] The same amount of 63170 (54.6 nM) was required.
# The EC50 was measured using an in-cell western NQO1 assay where the cells were incubated with the compound under evaluation for 3 days. After incubation with the compound of interest, the cells were reacted with mouse NQO1 antibody and then the next day the cells were reacted with IRDye-800CW-anti-mouse IgG antibody. The target signals were visualized and then analyzed.
# Nrf2 target genes [6] = test: Nrf2 target gene expression in HFL1 lung fibroblasts (quantitative PCR); assay type: cell-based, human; settings: 18 hours
# [7] = system: TNFα-induced NF-κB activation; test: TNFα-induced NF-κB luciferase reporter, A549/NF-κB-Luc cells; assay type: cell-based; settings: Homo sapiens
# Excerpt: as §1
# LPS-induced NO = test: in vivo NO suppression after LPS, CD-1 mice; settings: mouse
# [8] = system: genotoxicity (micronucleated polychromatic erythrocytes); test: in vivo micronucleus study
# CD rats = test: pulmonary evaluation in rats; assay type: in vivo, rat; settings: doses up to and including 30 mg/kg, single oral dose
# Experimental: One additional group of eight animals/sex served as the control and received vehicle (sesame oil).
# Observations for mortality, morbidity, injury, and availability of food and water were conducted twice daily for all animals. Clinical observations were conducted prior to dosing, approximately 4 hours post-dose, and following completion of the 8-hour pulmonary monitoring period. […] Pulmonary function (respiratory rate, tidal volume, and minute volume) was monitored for at least 1 hour prior to dosing to establish a baseline and for at least 8 hours post-dose.
# Nrf2 target genes [9] = test: Nrf2 target gene expression in BEAS-2B bronchial epithelial cells; assay type: cell-based, human; settings: 18 hours
# [10] = metabolism in monkey liver microsomes; settings: 60-minute incubation, NADPH and UGT
# CYP3A4 = test: CYP450 induction in cultured human hepatocytes: CYP3A4; assay type: in vitro ADME; settings: up to 3 μM
# NQO1 = NQO1 enzymatic activity in RAW264.7 cells; assay type: cell-based, mouse; settings: 24 hours
# Experimental: Consistent with induction of Nrf2 target genes and corresponding protein products, treatment of RAW264.7 mouse macrophage cells for 24 hours increased NQO1 enzymatic activity in a dose-dependent manner, with increases evident at 7.8 nM (FIG. 6).
smiles,measurement,setting,value
"CC1(C)CC[C@]2(NC(=O)C(C)(F)F)CC[C@]3(C)[C@H](C(=O)C=C4[C@@]5(C)C=C(C#N)C(=O)C(C)(C)[C@@H]5CC[C@]43C)[C@@H]2C1 [RTA 408, N-((4aS,6aR,6bS,8aR,12aS,14aR,14bS)-11-cyano-2,2,6a,6b,9,9,12a-heptamethyl-10,14-dioxo-1,2,3,4,4a,5,6,6a,6b,7,8,8a,9,10,12a,14,14a,14b-octadecahydropicen-4a-yl)-2,2-difluoropropanamide]",tolerability finding that stopped dosing on day 14,[1]; 30 mg/kg,excessive dehydration and diarrhea
same,polymorphonuclear (PMN) cell infiltration into the lungs,"[1]; 3 and 10 mg/kg, 28 days",significantly suppressed
same,collagen deposition (trichrome staining),"[1]; rat, in vivo",significant decrease in collagen deposition
same,"NQO1, Txnrd, Gsr, and Gst enzyme activity in lungs",[1]; rats exposed to bleomycin,significantly and dose-dependently increased
same,unique human metabolites,[2],No unique human metabolites
same,parent molecule remaining,"[2]; 60-minute incubation, NADPH and UGT",< 10%
same,"survival, systemic LPS",LPS-induced sepsis,improved survival
same,IC50,[3],517 ± 83 nM
same,WST-1 absorbance (NADPH marker),NADPH levels,increased WST-1 absorbance in a dose-dependent manner
same,B cells within the airways,ovalbumin-induced asthma; 30 mg/kg,significantly reduced the number and percentage of B cells
same,macrophages detected in the airways,ovalbumin-induced asthma; 3 and 30 mg/kg,significantly reduced the number of macrophages
same,"mRNA levels of H6PD, PGD, TKT, ME1","H6PD, PGD, TKT, ME1 mRNA",dose-dependent increase in expression of genes involved in NADPH synthesis
same,plasma concentrations after topical administration,[4],lower plasma concentrations relative to similar oral dosing
same,EC50,[5],56.4 nM
same,"concentration at which induction of NQO1, HMOX1, GCLM, TXNRD1 is evident",Nrf2 target genes [6],≤ 15.6 nM
same,IC50,[7],627 nM
same,NO in vivo,LPS-induced NO,dose-dependently suppresses NO in vivo
same,Change from Control (%),"[8]; 125 mg/kg, 24-h timepoint",−8%
same,Number of MPCE/1000 PCE (Mean +/− SD),"[8]; 125 mg/kg, 24-h timepoint",0.3 ± 0.27
same,Number of MPCE/PCE Scored,"[8]; 125 mg/kg, 24-h timepoint",3/10000
same,PCE/Total Erythrocytes (Mean +/− SD),"[8]; 125 mg/kg, 24-h timepoint",0.543 ± 0.03
same,Change from Control (%),"[8]; 125 mg/kg, 48-h timepoint",−14%
same,Number of MPCE/1000 PCE (Mean +/− SD),"[8]; 125 mg/kg, 48-h timepoint",0.2 ± 0.27
same,Number of MPCE/PCE Scored,"[8]; 125 mg/kg, 48-h timepoint",2/10000
same,PCE/Total Erythrocytes (Mean +/− SD),"[8]; 125 mg/kg, 48-h timepoint",0.453 ± 0.03
same,Change from Control (%),"[8]; 250 mg/kg, 24-h timepoint",−12%
same,Number of MPCE/1000 PCE (Mean +/− SD),"[8]; 250 mg/kg, 24-h timepoint",0.3 ± 0.27
same,Number of MPCE/PCE Scored,"[8]; 250 mg/kg, 24-h timepoint",3/10000
same,PCE/Total Erythrocytes (Mean +/− SD),"[8]; 250 mg/kg, 24-h timepoint",0.520 ± 0.06
same,Change from Control (%),"[8]; 250 mg/kg, 48-h timepoint",−26%
same,Number of MPCE/1000 PCE (Mean +/− SD),"[8]; 250 mg/kg, 48-h timepoint",0.2 ± 0.27
same,Number of MPCE/PCE Scored,"[8]; 250 mg/kg, 48-h timepoint",2/10000
same,PCE/Total Erythrocytes (Mean +/− SD),"[8]; 250 mg/kg, 48-h timepoint",0.391 ± 0.02
same,Change from Control (%),"[8]; 500 mg/kg, 24-h timepoint",−28%
same,Number of MPCE/1000 PCE (Mean +/− SD),"[8]; 500 mg/kg, 24-h timepoint",0.0 ± 0.00
same,Number of MPCE/PCE Scored,"[8]; 500 mg/kg, 24-h timepoint",0/10000
same,PCE/Total Erythrocytes (Mean +/− SD),"[8]; 500 mg/kg, 24-h timepoint",0.426 ± 0.07
same,Change from Control (%),"[8]; 500 mg/kg, 48-h timepoint",−36%
same,Number of MPCE/1000 PCE (Mean +/− SD),"[8]; 500 mg/kg, 48-h timepoint",0.3 ± 0.45
same,Number of MPCE/PCE Scored,"[8]; 500 mg/kg, 48-h timepoint",3/10000
same,PCE/Total Erythrocytes (Mean +/− SD),"[8]; 500 mg/kg, 48-h timepoint",0.339 ± 0.05
same,Change from Control (%),"[8]; 1000 mg/kg, 24-h timepoint",−15%
same,Number of MPCE/1000 PCE (Mean +/− SD),"[8]; 1000 mg/kg, 24-h timepoint",0.2 ± 0.27
same,Number of MPCE/PCE Scored,"[8]; 1000 mg/kg, 24-h timepoint",2/10000
same,PCE/Total Erythrocytes (Mean +/− SD),"[8]; 1000 mg/kg, 24-h timepoint",0.498 ± 0.05
same,Change from Control (%),"[8]; 1000 mg/kg, 48-h timepoint",−35%
same,Number of MPCE/1000 PCE (Mean +/− SD),"[8]; 1000 mg/kg, 48-h timepoint",0.1 ± 0.22
same,Number of MPCE/PCE Scored,"[8]; 1000 mg/kg, 48-h timepoint",1/10000
same,PCE/Total Erythrocytes (Mean +/− SD),"[8]; 1000 mg/kg, 48-h timepoint",0.344 ± 0.04
same,Change from Control (%),"[8]; 1500 mg/kg, 24-h timepoint",−15%
same,Number of MPCE/1000 PCE (Mean +/− SD),"[8]; 1500 mg/kg, 24-h timepoint",0.4 ± 0.22
same,Number of MPCE/PCE Scored,"[8]; 1500 mg/kg, 24-h timepoint",4/10000
same,PCE/Total Erythrocytes (Mean +/− SD),"[8]; 1500 mg/kg, 24-h timepoint",0.499 ± 0.06
same,Change from Control (%),"[8]; 1500 mg/kg, 48-h timepoint",−39%
same,Number of MPCE/1000 PCE (Mean +/− SD),"[8]; 1500 mg/kg, 48-h timepoint",0.4 ± 0.42
same,Number of MPCE/PCE Scored,"[8]; 1500 mg/kg, 48-h timepoint",4/10000
same,PCE/Total Erythrocytes (Mean +/− SD),"[8]; 1500 mg/kg, 48-h timepoint",0.376 ± 0.05
same,Change from Control (%),"[8]; 2000 mg/kg, 24-h timepoint",−10%
same,Number of MPCE/1000 PCE (Mean +/− SD),"[8]; 2000 mg/kg, 24-h timepoint",0.2 ± 0.27
same,Number of MPCE/PCE Scored,"[8]; 2000 mg/kg, 24-h timepoint",2/10000
same,PCE/Total Erythrocytes (Mean +/− SD),"[8]; 2000 mg/kg, 24-h timepoint",0.531 ± 0.05
same,Change from Control (%),"[8]; 2000 mg/kg, 48-h timepoint",−32%
same,Number of MPCE/1000 PCE (Mean +/− SD),"[8]; 2000 mg/kg, 48-h timepoint",0.1 ± 0.22
same,Number of MPCE/PCE Scored,"[8]; 2000 mg/kg, 48-h timepoint",1/10000
same,PCE/Total Erythrocytes (Mean +/− SD),"[8]; 2000 mg/kg, 48-h timepoint",0.360 ± 0.03
same,genotoxicity in the in vivo micronucleus study,[8]; 125-2000 mg/kg,63415 is Negative for Genotoxicity
same,basic pulmonary endpoints,CD rats,did not produce any adverse effects
same,expression of Nrf2 target genes,Nrf2 target genes [9],dose-dependent increase of all Nrf2 target genes evaluated
same,parent molecule remaining,[10],< 10%
same,induction of enzyme activity,CYP3A4,not an inducer
same,concentration at which increase in NQO1 enzymatic activity is evident,NQO1,7.8 nM
